Literature values in patent US20070225340A1, “Phenyl Compounds And Their Use In The Treatment Of Conditions Mediated By The Action Of Pge2 At The Ep1 Receptor” (Glaxo Group Limited, priority 2004, published 2007).

Tests used:
EP1 receptor [1] = target: T1, EP1 receptor (Rattus norvegicus, UniProt P70597); set-up: host or cells: living rat (in vivo pain model); settings: chronic constriction injury, Anesthesia and Analgesia 2001, 93, 1012-7
T1 sequence (P70597 1-405): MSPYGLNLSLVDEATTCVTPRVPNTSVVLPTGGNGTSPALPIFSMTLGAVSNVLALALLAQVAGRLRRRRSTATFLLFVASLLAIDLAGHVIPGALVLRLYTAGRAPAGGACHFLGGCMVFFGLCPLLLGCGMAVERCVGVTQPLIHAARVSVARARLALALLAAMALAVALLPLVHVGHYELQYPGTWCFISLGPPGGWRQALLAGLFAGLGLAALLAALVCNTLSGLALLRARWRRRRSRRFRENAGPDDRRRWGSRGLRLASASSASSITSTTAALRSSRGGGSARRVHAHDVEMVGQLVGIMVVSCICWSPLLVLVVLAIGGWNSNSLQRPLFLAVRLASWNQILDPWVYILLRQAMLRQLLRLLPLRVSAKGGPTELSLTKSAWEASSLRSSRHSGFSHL

EP1 receptor [2] = target: T1, EP1 receptor; set-up: host or cells: living rodent (in vivo pain model); settings: rodent, post-operative pain; Anesthesia and Analgesia 2001, 92, 233-238

In the case of Cc1cc(Cl)ccc1S(=O)(=O)NC[C@H]1C2CCC(CC2)[C@@H]1/C=C\CCCC(=O)O [ONO-8711], the “effect on hyperalgesia and allodynia” value (EP1 receptor [1]) is listed as “reduces hyperalgesia and allodynia” and the “effect on mechanical hyperalgesia” value (EP1 receptor [2]) is listed as “inhibits mechanical hyperalgesia”.
